Results as given in ChEMBL document CHEMBL1201862, “PubChem BioAssay data set” (2004).
Values joined by “and” are separate entries in the source; they are usually repeats but may differ in a detail not shown here. Identical values can stand only once.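 Test compounds were applied to cells in 96-well plates for 48 hours at 5 doses. Abbreviation: GI50, concentration required for 50% inhibition of growth.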 Active and inactive are the calls of the source. Rule as the data show it: active = GI50 up to about 1.1 µM and inactive = higher.

Columns and labels:
Experiment in all cases: NCI-60 cell line screen, 48 h
[1] = system: RPMI-8226
[2] = system: SF-295
[3] = system: SN12C
[4] = system: HOP-62
[5] = system: LOX IMVI
[6] = system: CAKI-1
[7] = system: NCI-H460
[8] = system: HCT-116
[9] = system: U-251
[10] = system: A498
[11] = system: T47D
[12] = system: NCI-H23
[13] = system: HOP-92
[14] = system: SNB-75
[15] = system: EKVX
[16] = system: RXF 393
[17] = system: MCF7
[18] = system: OVCAR-4
[19] = system: SF-268
[20] = system: Hs-578T
[21] = system: NCI/ADR-RES
[22] = system: BT-549
[23] = system: SK-OV-3
[24] = system: OVCAR-8
[25] = system: ACHN
[26] = system: MDA-MB-231
[27] = system: SK-MEL-5
[28] = system: NCI-H226
[29] = system: 786-0
[30] = system: UACC-62
[31] = system: PC-3
[32] = system: SK-MEL-2
[33] = system: NCI-H522
[34] = system: UACC-257
[35] = system: HCT-15
[36] = system: SNB-19
[37] = system: Malme-3M
[38] = system: SF-539
[39] = system: SW-620
[40] = system: HCC 2998
[41] = system: CCRF-CEM
[42] = system: SK-MEL-28
[43] = system: UO-31
[44] = system: HT-29
[45] = system: DU-145
[46] = system: HL-60
[47] = system: TK-10
[48] = system: K562
[49] = system: SR
[50] = system: IGROV-1
[51] = system: OVCAR-5
[52] = system: KM12
[53] = system: MDA-MB-435
[54] = system: A549
[55] = system: COLO 205
[56] = system: M14
[57] = system: OVCAR-3
[58] = system: MOLT-4

Measured: GI50

COc1ccc(-c2c(C#N)c(N)n(C3OC(COC(C)=O)C(OC(C)=O)C(OC(C)=O)C3OC(C)=O)c(=S)c2C#N)cc1 (stereo unspecified)
50.2 µM: [35]
inactive: [1] 26.1 µM and 30.8 µM | [2] 40.5 µM and 35.7 µM | [3] 76.4 µM and 43.3 µM | [4] 28.6 µM and 19.8 µM | [5] 34.3 µM and 32.9 µM | [6] 34.6 µM and 53.1 µM | [7] 47 µM and 61.4 µM | [8] 55.5 µM and 39.4 µM | [9] 46.5 µM and 31.7 µM | [10] 33.7 µM and 28.6 µM | [11] 18.6 µM and 28.3 µM | [12] 44 µM and 58.6 µM | [13] 17.1 µM and 19.2 µM | [14] 17.5 µM and 15.6 µM | [15] 26.5 µM and 30 µM | [16] 29.5 µM and 24.5 µM | [17] 29 µM and 22.2 µM | [18] 24.4 µM and 23.4 µM | [19] 21.4 µM and 25.5 µM | [20] 36.6 µM and 27.4 µM | [21] > 100 µM and 75.2 µM | [22] 26.1 µM and 26.7 µM | [23] 29.4 µM and 26.2 µM | [24] 34.2 µM and 21.3 µM | [25] 50.8 µM and 33.6 µM | [26] 27.9 µM and 29.9 µM | [27] 23.4 µM and 21.7 µM | [28] 50.1 µM and 91 µM | [29] 27.7 µM and 28.6 µM | [30] 20.8 µM and 20 µM | [31] 35.8 µM and 37.8 µM | [32] 22.8 µM and 24.2 µM | [33] 23.3 µM and 25.6 µM | [34] 43.1 µM and 23.7 µM | [36] 40 µM and 55.8 µM | [37] 43.9 µM and 23.9 µM | [38] 22.9 µM and 40.1 µM | [39] > 100 µM | [40] 30.3 µM and 18.2 µM

c1ccc(CSc2nc(N3CCOCC3)c3cn[nH]c3n2)cc1
active: [41] 0.0438 µM | [13] 237 nM
25.8 µM: [35]
inactive: [1] 7.85 µM | [2] 24.4 µM | [42] 19.1 µM | [43] 11.6 µM | [44] 30.8 µM | [3] 13.4 µM | [4] 27 µM | [5] 15.4 µM | [6] 9.18 µM | [7] 17.8 µM | [8] 30.5 µM | [45] 26.2 µM | [9] 20.5 µM | [46] 36.6 µM | [47] 18.5 µM | [10] 5.71 µM | [48] 16.2 µM | [11] 15.6 µM | [12] 49.2 µM | [49] 10.5 µM | [50] 10.2 µM | [14] 30.4 µM | [51] 22.3 µM | [15] 16.4 µM | [16] 6.1 µM | [17] 23.1 µM | [18] 40.7 µM | [19] 20.4 µM | [20] 13.2 µM | [52] 13.3 µM | [21] 15.2 µM | [53] 17.5 µM | [22] 11.7 µM | [23] 25 µM | [54] 22.8 µM | [24] 18.4 µM | [55] 12.6 µM | [56] 23.6 µM | [25] 17.2 µM | [26] 17 µM | [27] 15.8 µM | [28] 17 µM | [57] 27.7 µM | [29] 37.7 µM | [30] 11.4 µM | [31] 13.4 µM | [32] 16.6 µM | [33] 15.6 µM | [34] 15 µM | [58] 22.2 µM | [36] 24.7 µM | [37] 14.1 µM | [38] 21 µM | [39] 25.9 µM | [40] 23.6 µM

NC(Cc1n[nH]c2ccccc12)C(=O)O (stereo unspecified)
active: [32] 0.104 µM
inactive: [1] > 100 µM | [2] > 100 µM | [41] > 100 µM | [42] > 100 µM | [43] > 100 µM | [44] > 100 µM | [3] > 100 µM | [4] > 100 µM | [5] > 100 µM | [6] > 100 µM | [7] > 100 µM | [8] > 100 µM | [45] > 100 µM | [9] > 100 µM | [46] > 100 µM | [47] > 100 µM | [10] > 100 µM | [48] > 100 µM | [11] > 100 µM | [12] > 100 µM | [13] > 100000 nM | [49] > 100 µM | [50] > 100 µM | [14] > 100 µM | [51] > 100 µM | [15] > 100 µM | [16] > 100 µM | [17] > 100 µM | [18] > 100 µM | [19] > 100 µM | [20] > 100 µM | [52] > 100 µM | [21] > 100 µM | [53] > 100 µM | [22] > 100 µM | [23] > 100 µM | [54] > 100 µM | [24] > 100 µM | [55] > 100 µM | [56] > 100 µM | [25] > 100 µM | [26] > 100 µM | [27] > 100 µM | [28] > 100 µM | [57] > 100 µM | [29] > 100 µM | [30] > 100 µM | [31] > 100 µM | [33] > 100 µM | [34] > 100 µM | [58] > 100 µM | [36] > 100 µM | [37] > 100 µM | [38] > 100 µM | [39] > 100 µM | [40] > 100 µM
> 100 µM: [35]
